{"source": "patent US20230098254A1", "about": "“SCUTELLARIAE RADIX COMPOUNDS AND USE THEREOF FOR INHIBITING OXIDATIVE PHOSPHORYLATION PATHWAY OF MITOCHONDRIA” (priority 2020, published 2023)", "key": {"[1]": {"test_system": "Daoy cell", "assay": "Cell viability, Promega CellTiter-Glo, Daoy cell", "assay_type": "cell-based, human", "details": "Homo sapiens, Daoy, read-out: IC50 of cell viability inhibition", "protocol": "Cell viability was detected by using the Promega CellTiter-Glo kit, the kit reflected cell viability by directly measuring intracellular ATP content. […] Daoy cell and NCI-H82 cell were cultured in DMEM containing 10% FBS (plus p/s)."}, "[2]": {"test_system": "ATN-1", "assay": "Cell viability CellTiter-Glo, ATN-1", "assay_type": "cell-based", "details": "Homo sapiens; ATN-1, leukemia", "protocol": "Cell viability was measured by using the Promega CellTiter-Glo kit, the kit reflected cell viability by directly measuring intracellular ATP content. Different cancer cells were cultured in culture medium, and the 50% inhibitory concentration IC50 of the compound SJ2858 was measured by Promega CellTiter-Glo kit. The name source and culture condition of each tumor cell line were as follows:\nCell line ATN-1 (RIKEN, No. RBRC-RCB1440) was cultured in RPMI1640 medium containing 10% fetal bovine serum and 0.1 mM NEAA (+P/S);"}}, "note": "Like-named read-outs stand apart in the source and are kept apart here."}
{"compound": "O=c1cc(-c2ccccc2)oc2cc(O)c(O)c(O)c12", "note": "[Compound SJ2858, baicalein]", "values": [{"measurement": "IC50", "setting": "[1]; Daoy cell with CSA (1.5 μM mPTP inhibitor)", "result": 13.2, "unit": "µM"}, {"measurement": "IC50", "setting": "[1]; Daoy cell without CSA (active mPTP)", "result": 35.2, "unit": "µM"}, {"measurement": "IC50", "setting": "[2]", "result": 25.4, "unit": "µM"}]}
